Measurements published in US8563254B2, “Biomarkers of tumor pharmacodynamic response” (Novartis AG, priority 2009, dated 2013).

Assays:
[1] = tested on: GTL-16 tumor-bearing mice; experiment: Serum IL-8 / mouse KC in GTL-16 mouse xenograft model; type: in vivo
Procedure: The in vivo study was carried out in strict accordance with Swiss law for animal protection and was approved by the Swiss Cantonal Veterinary Office of Basel-Stadt. GTL-16 (4×10^6) and A375 cells (5×10^6) were inoculated subcutaneously in the right flank in 200 μl Hanks' balanced salt solution (HBSS) or PBS, respectively. Invasive procedures were performed under Forene anesthesia. All experiments were performed in female Harlan HsdNpa: Athymic Nude-nu mice (Laboratory Animal Services, Novartis Pharma AG, Basel). The animals were kept under optimized hygienic conditions with 12 hr dark, 12 hr light conditions. The animals were fed food and water ad libitum. A single 75 mg/kg and 50 mg/kg dose of Hsp90 inhibitor, NVP-AUY922 was administered to the GTL-16 and A375 tumor-bearing mice, when tumors had reached a mean volume of 200 mm^3-500 mm^3 in size. Mice in the control group were injected with the vehicle (D5W). Serum was isolated and tumors dissected over the time course 0-168 hr. Tumors were cut in two halves. One half was paraffin embedded and the other snap frozen, and stored at −80° C.
Human IL-8 levels in cell culture supernatants treated with NVP-AUY922 were initially assessed as part of a multiplexed bead-based cytokine panel (hu 27-plex panel I, Bio-rad Laboratories, Hercules, Calif., USA) with a BioPlex Suspension Array System (Bio-rad). Human IL-8 and mouse KC levels in serum derived from GTL-16 and A375 tumor-bearing mice treated with NVP-AUY922 were measured by single-plex cytokine bead-based assay (Milliplex, Millipore, Billerica, Mass., USA). The BioPlex system uses a liquid suspension array of beads. The beads align in a single file through a flow cell to the detector, where a red classification laser at a wavelength of 635 nm and a green reporter laser at a wavelength of 532 nm are used to identify each bead's spectral address and associated reporter signal, respectively.

A375 cells = experiment: Western blot of total protein lysates, A375; type: cell-based, human; conditions: A375, 0.3 μM, 16 hr and 24 hr
Procedure: Total protein lysates were prepared from the GTL-16 and A375 cells with RIPA lysis buffer (Upstate, Millipore Corporation, Charlottesville, Va., USA). Cells were washed with PBS and 500 ul of ice-cold RIPA buffer, containing protease inhibitor cocktail tablet (Roche Diagnostic GmbH, Mannheim, Germany) and phosphatase inhibitors (Sigma-Aldrich, Inc., St. Louis, Mo., USA), was added to each plate on ice. After 15 min the cells were scrapped from the plate surface and spun at 16000 RPM for 10 min at 4° C. The supernatant was collected and frozen at −80° C. Nuclear protein fractions were prepared by the NE-PER nuclear and cytoplasmic extraction kit (Pierce Biotechnology, Rockford, Ill., USA). Proteins were quantified by bicinchoninic acid assay (Pierce Biotechnology, Rockford, Ill., USA) for Western blotting. Primary antibodies specific for NFκB p65, cREL, p-ERK1/2, p-c-jun, ERK1 and Jun were purchased from Santa Cruz Biotechnology (Santa Cruz Biotechnology, Inc., Santa Cruz, Calif., USA) with the exception of Hsp70 and TBP (nuclear loading control), which were obtained from StressGen (StressGen, Assay Designs, Inc., Aim Arbor, Mich., USA) and Abcam (Abcam Inc., Cambridge, Mass., USA), respectively. 4-12% Bis-Tris SDS-PAGE, denaturing, non-reducing gels were loaded with 30 μg of total protein, a SeeBlue2Plus pre-stained protein standard and MES SDS running buffer were utilized for the electrophoretic separation in a XCell SureLock™ Mini-Cell (Invitrogen Corporation, Inc., Carlsbad, Calif., USA). An iBlot™ gel transfer PVDF stack with iBlot™ gel transfer system (Invitrogen) was used. An Odyssey Infrared Imaging System was used to detect the immunocomplex (Li-COR Biotechnologies, Inc., Lincoln, Nebr., USA). Li-COR blocking buffer was used to limit cross-reactivity. Membranes were incubated at 4° C. overnight in the primary antibody diluted in blocking buffer, followed by 1 hr room temperature incubation with a secondary IgG antibody (Li-COR IR dye, Li-COR).

GTL-16 cells [2] = experiment: Cell viability by CellTiter-Glo, GTL-16; type: cell-based, human; conditions: GTL-16, 0.3 μM, 72 hr treatment time
Procedure: Cell Viability was measured by CellTiter-Glo assay (Promega U.S., Madison, Wis., USA). GTL-16 and A375 cells were grown in 6-well poly-D-lysine coated plates (BD Biosciences). Cells were treated with NVP-AUY922. Cell viability was measured 16, 24, 48 and 72 hr post-treatment with Hsp90 inhibitor. Briefly supernatants were removed and cells were washed with 3 ml of PBS, pH 7.4. 1 ml of a two component CellTiter-Glo reagent was added to each well and the plates were shaken vigorously for 2 min, followed by 10 min incubation at room temperature in the dark. Luminescent signal intensity was recorded with an integration time set between 0.25 and 1 s/well.

GTL-16 cells [3] = experiment: IL-8 ELISA of GTL-16 culture supernatants; type: cell-based, human
Procedure: A malignant melanoma cell line A375 (American Type Culture Collection, Manassas, Va., USA) and gastric cancer cell line, GTL-16 (Prof Silvia Giordano, Institute for Cancer Research and Treatment, Turin, Italy) were cultured in RPMI 1640 supplemented with 10% FBS and 1% penicillin-streptomycin at 37° C. in 5% CO2 (GIBCO reagents, Invitrogen Corporation, Carlsbad, Calif., USA). Cell numbers were determined by ViCell™ XR Cell Viability Analyzer 2.03 (Beckman Coulter, Inc., Fullerton, Calif., USA). Cells were seeded in poly-D-lysine coated plates (BIOCOAT Cell Environments, Becton Dickinson Biosciences, San Jose, Calif., USA).
Human IL-8 levels in cell culture supernatants from GTL-16 and A375 cells were measured by a sandwich enzyme-linked immunosorbent assay (R&D Systems, Inc., Minneapolis, Minn., USA). Cell culture supernatants were collected from DMSO and NVP-AUY922 treated cells 16, 24, 48 and 72 hr post-treatment and stored at −20° C.
To better characterize the relationship between Hsp90 inhibitor treatment and effects on IL-8 production, GTL-16 and A375 cells were washed and treated for 24 hr with fresh medium containing various concentrations of NVP-AUY922. For this length of treatment time, maximal inhibition of IL-8 accumulation appears to be reached at 0.3 μM as measured by enzyme-linked immunosorbent assay; this equates to 80% and 60% reductions in GTL-16 and A375 cultures, respectively (FIGS. 2A, B).

CCNC(=O)c1noc(-c2cc(C(C)C)c(O)cc2O)c1-c1ccc(CN2CCOCC2)cc1 [NVP-AUY922, 5-(2,4-Dihydroxy-5-isopropyl-phenyl)-4-(4-morhpolin-4-ylmethyl-phenyl)-isoxazole-3-carboxylic acid ethylamide]
murine IL-8 levels, measured indirectly as mu KC ([1]; serum): unchanged
earliest time of significant decrease in serum IL-8 ([1]; single 75 mg/kg dose): 6 h
time by which serum IL-8 recovers to pre-treatment levels ([1]; single 75 mg/kg dose): ≤ 72 h
maximum decline of serum IL-8 levels ([1]; single 75 mg/kg dose, 12 hr post-treatment): approximately 70%
Hsp70 induction (A375 cells): induction was observed
levels of phospho-ERK1/2 and phospho-c-Jun (A375 cells): significantly diminished
total ERK and c-Jun levels (A375 cells): unaffected
total cellular levels of NFκB p65 and c-REL (A375 cells): essentially unchanged
cell viability over time (GTL-16 cells [2]): steadily declines
time within which IL-8 production dramatically declines (GTL-16 cells [3]; GTL-16, 0.3 μM): ≤ 16 h
concentration at which maximal inhibition of IL-8 accumulation is reached (GTL-16 cells [3]; GTL-16, 24 hr treatment): 0.3 µM
inhibition at 0.3 µM (GTL-16 cells [3]; Homo sapiens, GTL-16, 0.3 μM, 24 hr, ELISA, read-out: reduction of IL-8 accumulation (maximal inhibition)): 80%
